In paper PMC7660650, “Chemical Starting Matter for HNF4α Ligand Discovery and Chemogenomics” (International Journal of Molecular Sciences, 2020):
Where “and” joins values, the source holds several entries; their conditions need not be identical. Equal entries are not always repeated. Entries after “also recorded” stand apart in the source; their conditions may differ. Where two headings read alike, the source gives them in different places.

How the values were obtained:
[1] = system: Gal4–VP16; test: Gal4-VP16 control experiment (reporter gene assay, HEK293T cells); format: cell-based; settings: mean ± SD
Protocol: The frame and sequence of the fusion plasmid were verified by sequencing. pFR-Luc (Stratagene) was used as reporter plasmid and pRL-SV40 (Promega, Madison, WI, USA) served for normalization of transfection efficiency and cell growth. The Gal4-VP16 [25] expressed from plasmid pECE-SV40-Gal4-VP16 [26] […] Assay Procedure: HEK293T cells were grown in Dulbecco’s Modified Eagle Medium (DMEM) high glucose, supplemented with 10% Fetal Bovine Serum (FCS), sodium pyruvate (1 mM), penicillin (100 U/mL), and streptomycin (100 μg/mL) at 37 °C and 5% CO2. The day before transfection, HEK293T cells were seeded in 96-well plates (3.0·10^4 cells/well). Before transfection, the medium was changed to Opti-MEM without supplements. Transient transfection was carried out using Lipofectamine LTX reagent (Invitrogen, Carlsbad, CA, USA) according to the manufacturer’s protocol with pFR-Luc (Stratagene), pRL-SV40 (Promega), and the pFA-CMV-hHNF4α-LBD clone or pECE-SV40-Gal4-VP16 for control experiments. Five hours after transfection, the medium was changed to Opti-MEM supplemented with penicillin (100 U/mL), streptomycin (100 μg/mL), now additionally containing 0.1% DMSO (0.2% in the primary screen) and the respective test compounds or 0.1% DMSO (0.2% in the primary screen) alone as the untreated control. In the primary screening, the core set of the Prestwick Drug Fragment Library (Prestwick Chemical, Illkirch, France) was tested at 50 µM concentration in two biologically independent repeats. In the follow-up and dose-response profiling, each concentration was tested in duplicates in at least three biologically independent repeats. Following overnight (12−14 h) incubation with the test compounds, cells were assayed for luciferase activity using Dual-Glo™ luciferase assay system (Promega) according to the manufacturer’s protocol. Luminescence was measured with a Tecan Spark 10M luminometer (Tecan Group Ltd., Männedorf, Switzerland). […] Fold activation was obtained by dividing the mean RLU of test compounds at a respective concentration by the mean RLU of untreated control.

[2] = target: T1, Gal4-HNF4α (human HNF4α LBD) (Homo sapiens, UniProt P41235); test: Hybrid Gal4-HNF4α reporter gene assay in transiently transfected HEK293T cells; format: cell-based; settings: for Primary Screen (Fold Act., 50 µM): mean of two biologically independent repeats, vs. 0.2% DMSO; for Follow-up HNF4α (fold activation of reporter activity) / EC50: at least four repeats; for HNF4a-screening_activity_(mean_of_n=2): Table S1, primary screening; for HNF4α Ligand Type: Gal4-HNF4α assay; for EC50: read-out: Validated HNF4α Modulation EC50
T1 construct: uniprot entry: P41235-1, residues 142-377; expressed in transfected cells; host or cells: HEK293T
T1 sequence (P41235 142-377): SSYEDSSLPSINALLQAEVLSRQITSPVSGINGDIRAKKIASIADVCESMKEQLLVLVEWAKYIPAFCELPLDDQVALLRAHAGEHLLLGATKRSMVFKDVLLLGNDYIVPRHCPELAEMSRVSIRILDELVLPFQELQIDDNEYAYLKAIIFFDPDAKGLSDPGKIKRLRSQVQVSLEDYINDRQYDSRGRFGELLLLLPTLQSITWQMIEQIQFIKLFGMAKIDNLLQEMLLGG

[3] = system: HNF4α-regulated gene fructose-1,6-bisphosphatase 1 (FBP1); test: FBP1 mRNA expression in HepG2 cells by qRT-PCR; format: cell-based, human; settings: 8 h, vs 0.1% DMSO
[4] = target: T2, recombinant HNF4α LBD protein (Homo sapiens, UniProt P41235); test: Isothermal titration calorimetry (ITC); format: binding; settings: for Kd: 25 °C, protein 10–20 µM titrated with ligand 50–200 µM, read-out: HNF4α LBD Binding (Kd); for n (ITC binding model): Figure 4
T2 construct: The LDB domain of HNF4α (aa. 148–377) subcloned into pNIC28-Bsa4; His6 (N); made in house; host or cells: E. coli Rosetta
T2 sequence (P41235 148-377): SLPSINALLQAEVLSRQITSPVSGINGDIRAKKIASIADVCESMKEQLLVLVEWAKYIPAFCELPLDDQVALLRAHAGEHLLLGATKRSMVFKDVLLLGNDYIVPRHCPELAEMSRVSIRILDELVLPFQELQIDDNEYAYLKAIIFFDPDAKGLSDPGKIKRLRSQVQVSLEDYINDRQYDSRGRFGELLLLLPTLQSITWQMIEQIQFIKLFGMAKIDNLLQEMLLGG
Protocol: The recombinant protein harboring an N-terminal His6 tag was initially purified by Ni^2+-affinity chromatography. Size exclusion chromatography was performed using Superdex S75 column (GE Healthcare, Chicago, IL, USA.), and the pure protein was stored in a buffer containing 20 mM 4-(2-hydroxyethyl)-1-piperazineethanesulfonic acid (HEPES) pH 7.5, 200 mM NaCl, 0.5 mM tris(2-carboxyethyl)phosphine (TCEP), and 5% w/v glycerol.
Isothermal titration calorimetry was performed on an Affinity ITC (TA Instruments, New Castle, DE, USA). The instrument was equilibrated to 25 °C and the stirring rate was set to 75 rpm. HNF4α buffer (20 mM HEPES pH 7.5, 200 mM NaCl, 0.5 mM TCEP, 5% w/v glycerol) with up to 1% DMSO (final concentration) was used for ITC. The recombinant HNF4α LBD protein (10–20 µM, 172 µL) was titrated with fragments (4, 6, 7, 9, 10; 50–200 µM; dissolved in the same buffer). A total of 20-30 injections with a volume of 2.5–4 µL and with an interval of 200–300 s were performed. As a control experiment, HNF4α protein was titrated with buffer, and the buffer was titrated with test compound to detect dissolution artifacts with otherwise identical experimental parameters. Data analysis was performed with NanoAnalyze^TM Software (TA Instruments, New Castle, DE, USA.) using an independent binding model.

[5] = target: the molecule itself; test: ITC; HNF4α LBD protein alone; dimer dissociation upon dilution (seen when inverse ITC experiments were tried); dimer to monomers
[6] = significance of Gal4-HNF4α follow-up vs Gal4-VP16 control at the same concentration

Molecule: Cc1cc(C(C)(C)CC(C)(C)C)ccc1O [compound 1, Cc1cc(ccc1O)C(C)(C)CC(C)(C)C]
- VP16 Control (fold activation of reporter activity) ([1]; 50 µM): 0.80 ± 0.07 (50 µM) fold activation
- Primary Screen (Fold Act., 50 µM) ([2]; 50 µM): 2.48 fold activation
- Follow-up HNF4α (fold activation of reporter activity) ([2]; 50 µM, mean ± SD): 1.1 ± 0.2 (50 µM) fold activation
- HNF4a-screening_activity_(mean_of_n=2) ([2]; 50 µM, listed as Prestw-Frag-1016): 2.483 and 1.264

Molecule: COc1ccc2c(c1)OCC2=O [compound 2, COc1ccc2C(=O)COc2c1]
- VP16 Control (fold activation of reporter activity) ([1]; 50 µM): 1.3 ± 0.3 (50 µM) fold activation
- Primary Screen (Fold Act., 50 µM) ([2]; 50 µM): 1.55 fold activation
- Follow-up HNF4α (fold activation of reporter activity) ([2]; 50 µM, mean ± SD): 1.3 ± 0.2 (50 µM) fold activation
- HNF4a-screening_activity_(mean_of_n=2) ([2]; 50 µM, listed as Prestw-Frag-1362): 0.8621 and 1.554

Molecule: Nc1nc2cc(C(=O)c3ccccc3)ccc2[nH]1 [compound 3]
- VP16 Control (fold activation of reporter activity) ([1]; 50 µM): 1.7 ± 0.3 (50 µM) fold activation
- Primary Screen (Fold Act., 50 µM) ([2]; 50 µM): 2.09 fold activation
- Follow-up HNF4α (fold activation of reporter activity) ([2]; 50 µM, mean ± SD): 1.5 ± 0.2 (50 µM) fold activation

Molecule: O=C(Nc1ccccc1Cl)c1ccccc1O [compound 4, Oc1ccccc1C(=O)Nc1ccccc1Cl]
- FBP1 mRNA expression ([3]; HepG2, 50 µM): promoted FBP1 expression; also recorded: tendency to enhanced FBP1 mRNA levels

Molecule: CC(C)CC(N)C1(c2ccc(Cl)cc2)CCC1 (centres unmarked) [compound 5, CC(C)CC(N)C1(CCC1)c1ccc(Cl)cc1]
- VP16 Control (fold activation of reporter activity) ([1]; 100 µM): 1.1 ± 0.1 (100 µM) fold activation
- Primary Screen (Fold Act., 50 µM) ([2]; 50 µM): 1.80 fold activation
- Follow-up HNF4α (fold activation of reporter activity) ([2]; 50 µM, mean ± SD): tendency for HNF4α modulation
- Follow-up HNF4α (fold activation of reporter activity) ([2]; 100 µM, mean ± SD): 2.5 ± 0.2 (100 µM) fold activation
- HNF4α Ligand Type [2]: Agonist
- HNF4a-screening_activity_(mean_of_n=2) ([2]; 50 µM, listed as Prestw-Frag-1566): 0.9114 and 1.797
- EC50 ([2]; dose-response, mean ± SD): > 100 µM
- HNF4α vs. VP16 (p, t-test) [2, 6]: p < 0.0001 (***)

Molecule: Nc1ncn([C@@H]2O[C@H](CO)[C@@H](O)[C@H]2O)c(=O)n1 [compound 6, Nc1ncn([C@@H]2O[C@H](CO)[C@@H](O)[C@H]2O)c(=O)n1]
- FBP1 mRNA expression ([3]; HepG2, 10 µM): significantly promoted FBP1 expression
- HNF4α vs. VP16 (p, t-test) [2]: p = 0.0034 (**)

Molecule: Nc1ncns1 [compound 7, Nc1ncns1]
- FBP1 mRNA expression ([3]; HepG2, 50 µM): promoted FBP1 expression; also recorded: tendency to enhanced FBP1 mRNA levels
- Kd [4]: ~7 µM and 7 µM
- n (ITC binding model) [4]: 0.9
- VP16 Control (fold activation of reporter activity) ([1]; 50 µM): 1.4 ± 0.1 (50 µM) fold activation
- Primary Screen (Fold Act., 50 µM) ([2]; 50 µM): 2.36 fold activation
- Follow-up HNF4α (fold activation of reporter activity) ([2]; 50 µM, mean ± SD): 3.0 ± 0.3 (50 µM) fold activation
- HNF4α Ligand Type [2]: Agonist
- HNF4a-screening_activity_(mean_of_n=2) ([2]; 50 µM): 2.362
- EC50 ([2]; dose-response, mean ± SD): 31 µM
- Validated HNF4α Modulation maximum fold act. ([2]; maximum fold increase in reporter activity relative to 0.1% DMSO): 3.8 fold act. and 3.8 ± 0.6 fold act.
- HNF4α vs. VP16 (p, t-test) [2, 6]: p < 0.0001 (***)

Molecule: Cc1nc(-c2ccccc2)c(-c2ccccc2)o1 [compound 8]
- VP16 Control (fold activation of reporter activity) ([1]; 50 µM): 0.92 ± 0.07 (50 µM) fold activation
- Follow-up HNF4α (fold activation of reporter activity) ([2]; 50 µM, mean ± SD): 1.1 ± 0.2 (50 µM) fold activation

Molecule: O=C(O)c1cc(-c2ccccc2)ccc1O [compound 9, OC(=O)c1cc(ccc1O)-c1ccccc1]
- FBP1 mRNA expression ([3]; HepG2, 50 µM): decreased FBP1 mRNA levels; also recorded: robustly decreased FBP1 expression

Molecule: OC(c1ccc(F)cc1)c1ccc(F)cc1 [compound 10]
- FBP1 mRNA expression ([3]; HepG2, 50 µM): decreased FBP1 mRNA levels; also recorded: robustly decreased FBP1 expression
- Kd [4]: ~1.7 µM and 1.7 µM
- n (ITC binding model) [4]: 1.1
- VP16 Control (fold activation of reporter activity) ([1]; 50 µM): 1.1 ± 0.2 (50 µM) fold activation
- Follow-up HNF4α (fold activation of reporter activity) ([2]; 50 µM, mean ± SD): 0.75 ± 0.05 (50 µM) fold activation
- HNF4α Ligand Type [2]: inverse HNF4α agonism; also recorded: Inverse agonist
- IC50 ([2]; dose-response, inverse agonism, mean ± SD, read-out: Validated HNF4α Modulation IC50): 24 µM
- HNF4α vs. VP16 (p, t-test) [2, 6]: p = 0.0057 (**)

Molecule: Cc1cc(=O)n(-c2ccc(C)c(C)c2)[nH]1 [compound 11, Cc1cc(=O)n([nH]1)-c1ccc(C)c(C)c1]
- VP16 Control (fold activation of reporter activity) ([1]; 100 µM): 0.21 ± 0.02 (100 µM) fold activation
- Primary Screen (Fold Act., 50 µM) ([2]; 50 µM): 0.32 fold activation
- Follow-up HNF4α (fold activation of reporter activity) ([2]; 50 µM, mean ± SD): tendency for HNF4α modulation
- Follow-up HNF4α (fold activation of reporter activity) ([2]; 100 µM, mean ± SD): 0.21 ± 0.03 (100 µM) fold activation
- HNF4a-screening_activity_(mean_of_n=2) ([2]; 50 µM): 0.3184

B1: recombinant HNF4α LBD protein (hepatocyte nuclear factor 4α ligand-binding domain, aa. 148–377) (domain or fragment, human, UniProt P41235-1 148-377, looked up)
chain: T2 sequence (P41235 148-377)
notes: 148-377, subcloned into pNIC28-Bsa4; UniProt entry and species are printed for the Gal4-HNF4α reporter construct, not expressly for the E. coli construct; also called NR2A1
- binding result [5]: binds
